Measurements: patent US10945685B2, “System and method for normalizing standardized uptake values in brain positron emission tomography (PET) images” (New York University, priority 2018, dated 2021)
Entries after “also recorded” stand apart in the source; their conditions may differ.

How the values were obtained:
[1] = tested on: tau; test: Tau PET tracer binding, SUVP peak-alignment method and positive binding percentage (PBP), AD patients and NL subjects; type: in vivo, human; conditions: for PBP of SUVP, Basal ganglia / PBP of SUVP, Cerebellar GM / PBP of SUVP, Cerebral GM / PBP of SUVP, Cerebral WM / PBP of SUVP, Frontal cortex / PBP of SUVP, Occipital cortex / PBP of SUVP, Partial cortex / PBP of SUVP, Temporal cortex: SUVP cutoff 1.5; for PBP of SUVP, Basal ganglia / PBP of SUVP, Cerebellar GM / PBP of SUVP, Cerebral GM / PBP of SUVP, Cerebral WM / PBP of SUVP, Frontal cortex / PBP of SUVP, Occipital cortex / PBP of SUVP, Partial cortex / PBP of SUVP, Temporal cortex / mean SUVP in cerebellum GM: mean (SD)
Excerpt: The set of standardized uptake values (with repetition) for all voxels within brain region r and subject s may be represented as SUV(r,s). Each of the values of SUV(r,s) may be normalized using a SUVP method represented as follows: SUVP(r,s)=(SUV(r,s)−M)/S, where M corresponds to a peak of the number of counts of emissions events recorded across all of the voxels of the PET image data, and S corresponds to a spread of all of the different counts of emissions events recorded across all of the voxels of the PET image data. Each subject's SUV image may be normalized and transferred into a standardized SUVP, using the standardized uptake value peak-alignment (SUVP) method described herein.
In one particular example, M is the sample mode of rounded SUV(r,s), and S is the standard deviation of SUV(r,s). Furthermore, the peak (M) values, in particular the sample mode of rounded SUV(r,s) may be used as a reference region to normalize raw SUV data using methods similar to SUVR.
In addition, as shown in step 112, a SUVP method may also be used to analyze regional percentages of positive binding in the PET data. Positive binding may be defined based on a predetermined cutoff value. The predetermined cutoff value may be any suitable value that is well above background signal. In some embodiments, the predetermined cutoff value may be manually set by a user. One important advantage of SUVP is that it standardized range of whole brain SUV into a generally fixed range regardless of tracer or disease condition, allowing universal cutoff for different tracers (e.g., 1.5 for all tracers), while SUVR cutoffs are tracer-dependent and varies across different studies (e.g., 1.5 for THK5315 and 1.2 for AV1451). Additionally, as discussed further below in Example I, when SUVP was calculated by using a standard deviation (SD), 1.5 times a SUVP cutoff value is equivalent to 1.5 times SD, which signifies a statistic meaningful way to distinguish and identify positive voxels. The percentage of positive binding (PBP) may be obtained by:
Subjects come from two sources. 18 subjects (9 AD patients, and 9 healthy elderly study participants) underwent ^18F-THK5351 PET scans from the memory clinic of Tohoku University Hospital. ^18F-AV-1451 scans were obtained from the ADNI (Alzheimer's Disease Neuroimaging Initiative) database (adni.loni.usc.edu). 32 Subjects (20 NL and 12 AD) with ^18F-AV-1451 were selected from ADNI, that were matched to the age and MMSE in participants of the THK5351 group.
(§1) PET imaging was performed using an Eminence STARGATE PET scanner (Shimadzu, Kyoto, Japan). After intravenous injection of ^18F-THK5351 (185 MBq), dynamic PET images were obtained for 60 min. acquisition matrix is 128×128×79 and voxels size is 2×2×2.6 mm. ^18F-THK5351 was synthesized. MRI was performed on all participants. T1 weighted MR images were obtained using a SIGNA 1.5-Tesla machine (General Electric, Milwaukee, Wis.). In T1-weighted MRI, a 3D volumetric acquisition of a T1-weighted gradient echo sequence produced a gapless series of thin axial sections by using a vascular TOF SPGR sequence (echo time/repetition time, 2.4/50 ms; flip angle, 45°; acquisition matrix, 256×256; 1 excitation; field of view, 22 cm; slice thickness, 2.0 mm).
AV-1451 data were downloaded from ADNI with series description “AV1451 Coreg, Avg, Std Img and Vox Siz, Uniform Resolution”. An intravenous injection of 10 mCi ^18F-AV-1451 (370 MBq) is followed by a saline flush. At approximately 75 minutes following injection, a continuous 30-minute brain scan (6 frames of 5-minute duration) was performed after a CT or transmission scan for attenuation correction. PET imaging was performed using GEMINI TF TOF 16 (Philips Medical Systems), with 6 frames; acquisition matrix 128×128×90; pixel spacing 2×2 mm; slice thickness 2 mm. […]

[2] = Off-target binding observed on PET images; type: in vivo, human; conditions: observed on PET image
Description: as §1
AV-1451 data were downloaded from ADNI with series description “AV1451 Coreg, Avg, Std Img and Vox Siz, Uniform Resolution”. An intravenous injection of 10 mCi ^18F-AV-1451 (370 MBq) is followed by a saline flush. At approximately 75 minutes following injection, a continuous 30-minute brain scan (6 frames of 5-minute duration) was performed after a CT or transmission scan for attenuation correction. PET imaging was performed using GEMINI TF TOF 16 (Philips Medical Systems), with 6 frames; acquisition matrix 128×128×90; pixel spacing 2×2 mm; slice thickness 2 mm.
Standardized uptake value (SUV) images were obtained by normalizing tissue radioactivity concentration by injected dose and bodyweight. Estimates of tau deposition were determined for THK53151 with the 40-60 min SUV and for AV1451 with for the 80-100 min SUV. Standard SUVR was generated by using cerebellar cortex as reference. To control the variation of SUVR measures in THK5351 and AV1451 PET caused by the off-target binding in reference region, each subject's SUV images were first transferred into standardized SUVP images, using the Peak-alignment method (as described above). […]

Structure (SMILES)	PBP of SUVP, Basal ganglia ([1]; AD patients)	PBP of SUVP, Cerebellar GM ([1]; AD patients)	PBP of SUVP, Cerebral GM ([1]; AD patients)	PBP of SUVP, Cerebral WM ([1]; AD patients)	PBP of SUVP, Frontal cortex ([1]; AD patients)	PBP of SUVP, Occipital cortex ([1]; AD patients)	PBP of SUVP, Partial cortex ([1]; AD patients)	PBP of SUVP, Temporal cortex ([1]; AD patients)	mean SUVP in cerebellum GM ([1]; AD patients)	PBP of SUVP, Basal ganglia ([1]; NL subjects)	PBP of SUVP, Cerebellar GM ([1]; NL subjects)	PBP of SUVP, Cerebral GM ([1]; NL subjects)	PBP of SUVP, Cerebral WM ([1]; NL subjects)	PBP of SUVP, Frontal cortex ([1]; NL subjects)	PBP of SUVP, Occipital cortex ([1]; NL subjects)	PBP of SUVP, Partial cortex ([1]; NL subjects)	PBP of SUVP, Temporal cortex ([1]; NL subjects)	mean SUVP in cerebellum GM ([1]; NL subjects)	regions with off-target binding [2]	further results
[18F]c1ccc(-c2ccc3c(c2)[nH]c2ccncc23)cn1 [AV-1451]	18.55(12.28)^	.90(1.46)	9.4(10.83)^+	7.86(7.44)^+	5.32(7.70)^	5.59(8.23)^+	10.2(15.2)^+	20.72(20.48)*^+	−0.73(0.43)	28.14(11.42)	.83(1.45)	1.85(3.24)	2.65(3.64)	0.78(1.43)	0.54(1.58)	0.95(3.21)	5.44(11.10)	−1.00(0.45)	choroidal plexus and substantia nigra; also recorded: cerebral white matter and basal ganglia region	increase of cerebellar GM SUVP in AD comparing to NL ([1]; AD vs NL): 37%; regions with off-target binding ([2]; listed as AV1451): cerebellum
CNc1ccc(-c2ccc3cc(OC[C@H](O)CF)ccc3n2)cn1 [THK5351]	61.93(7.25)	.07(.10)	5.56(1.47)	8.70(3.24)	1.25(0.86)^	1.73(2.79)^	2.16(3.33)^+	17.94(5.15)*^+	−1.24(0.24)	81.24(8.55)^++	.10(.14)	3.81(2.19)	7.06(1.55)	2.37(1.25)^+	0.05(0.09)	0.17(0.21)	6.93(4.78)	−1.21(0.28)	ponds and Amygdala; also recorded: cerebral white matter and basal ganglia region	decrease of cerebellum GM SUVP in AD comparing to NL ([1]; AD vs NL): 2.5%
